Data as given in a compilation of properties of binary mixtures (doi:10.1016/j.molliq.2021.116359).

Experiment: xn = mol fraction of the nth substance listed
Conditions: 101.3 kPa, x1 = 0.2

CCCC[N+](CCCC)(CCCC)CCCC.O=S(=O)([O-])O + CCCCCCCCCO
Conditions | electrical conductivity [S/m] | speed of sound [m/s] | viscosity [mPa·s]
298.15 K | 0.0037 | 1411.5 | 137.2
303.15 K | 0.005 | 1395 | 107.9
318.15 K | 0.0102 | 1346.7 | 51.9
323.15 K | 0.0123 | 1331.1 | 41.9
328.15 K | 0.0146 | 1315.7 | 33.79
333.15 K | 0.018 | 1300.3 | 27.74
